Experimental data: US20130196971A1, “FATTY ACID SYNTHASE INHIBITORS” (priority 2010, published 2013)

Target: FAS (Homo sapiens, UniProt P49327)
Experiment: FAS Assay (Assay #1 residual NADPH detection or Assay #2 CoA detection with CPM dye)
Type: biochemical
Conditions: FAS inhibition, measured through Assay #1 or Assay #2; one experiment or average of multiple experiments
Procedure: FAS activity was measured through one of the two following assays.
Inhibition of FAS activity can be measured based on the detection of residual NADPH substrate after the FAS assay is quenched. This assay is run as a 10 μL endpoint assay in 384-well format, where the reaction contains 20 μM malonyl-CoA, 2 μM acetyl-CoA, 30 μM NADPH and 40 nM FAS in 50 mM sodium phosphate, pH 7.0. The assay is run by sequentially dispensing 5 μl of a malonyl-CoA solution, then enzyme solution (containing the acetyl-CoA, and NADPH) into a black, low volume assay plate (Greiner 784076) pre-dispensed with 100 nL compound solutions in DMSO. The reaction is incubated at ambient temperature for 60 minutes, then quenched with 5 μL of a developing solution composed of 90 μM resazurin, 0.3 IU/ml diaphorase in 50 mM sodium phosphate, pH 7.0. The developed reaction is read on a Molecular Devices Analyst or Acquest (or equivalent) plate reader using a 530 nm excitation wavelength filter, a 580 nm emission filter, and 561 nm dichroic filter. The test compounds are prepared in neat DMSO at a concentration of 10 mM. For inhibition curves, compounds are diluted using a three fold serial dilution and tested at 11 concentrations (e.g. 25 μM-0.42 nM). Curves are analysed using ActivityBase and XLfit, and results are expressed as pIC50 values.
Inhibition of FAS can also be quantified based on the detection of the CoA products with a thio-reactive coumarin dye. This assay is run as a 10 μL endpoint assay in 384-well format, where the reaction contains 20 μM malonyl-CoA, 20 μM acetyl-CoA, 40 μM NADPH and 2 nM FAS in 50 mM sodium phosphate, pH 7.0, and 0.04% Tween-20. The assay is run by adding 5 μL enzyme solution to a black, low volume assay plate (Greiner 784076) pre-dispensed with 100 nl compound solutions in DMSO. After 30 minutes, 5 μL substrate is added, and the reaction incubated at ambient temperature for an additional 60 minutes. The reaction is then quenched with 10 μL of 6M guanidine-HCl containing 50 μM CPM (7-diethylamino-3-(4′-maleimidylphenyl)-4-methylcoumarin (CPM; thio-reactive dye), and incubated for 30 minutes. The plate is read on an Envision (PerkinElmer) or equivalent plate reader using a 380 nm excitation wavelength filter, and a 486 nm emission filter. Data fitting and compound preparations are done as described above.

Chain of FAS (P49327 whole entry): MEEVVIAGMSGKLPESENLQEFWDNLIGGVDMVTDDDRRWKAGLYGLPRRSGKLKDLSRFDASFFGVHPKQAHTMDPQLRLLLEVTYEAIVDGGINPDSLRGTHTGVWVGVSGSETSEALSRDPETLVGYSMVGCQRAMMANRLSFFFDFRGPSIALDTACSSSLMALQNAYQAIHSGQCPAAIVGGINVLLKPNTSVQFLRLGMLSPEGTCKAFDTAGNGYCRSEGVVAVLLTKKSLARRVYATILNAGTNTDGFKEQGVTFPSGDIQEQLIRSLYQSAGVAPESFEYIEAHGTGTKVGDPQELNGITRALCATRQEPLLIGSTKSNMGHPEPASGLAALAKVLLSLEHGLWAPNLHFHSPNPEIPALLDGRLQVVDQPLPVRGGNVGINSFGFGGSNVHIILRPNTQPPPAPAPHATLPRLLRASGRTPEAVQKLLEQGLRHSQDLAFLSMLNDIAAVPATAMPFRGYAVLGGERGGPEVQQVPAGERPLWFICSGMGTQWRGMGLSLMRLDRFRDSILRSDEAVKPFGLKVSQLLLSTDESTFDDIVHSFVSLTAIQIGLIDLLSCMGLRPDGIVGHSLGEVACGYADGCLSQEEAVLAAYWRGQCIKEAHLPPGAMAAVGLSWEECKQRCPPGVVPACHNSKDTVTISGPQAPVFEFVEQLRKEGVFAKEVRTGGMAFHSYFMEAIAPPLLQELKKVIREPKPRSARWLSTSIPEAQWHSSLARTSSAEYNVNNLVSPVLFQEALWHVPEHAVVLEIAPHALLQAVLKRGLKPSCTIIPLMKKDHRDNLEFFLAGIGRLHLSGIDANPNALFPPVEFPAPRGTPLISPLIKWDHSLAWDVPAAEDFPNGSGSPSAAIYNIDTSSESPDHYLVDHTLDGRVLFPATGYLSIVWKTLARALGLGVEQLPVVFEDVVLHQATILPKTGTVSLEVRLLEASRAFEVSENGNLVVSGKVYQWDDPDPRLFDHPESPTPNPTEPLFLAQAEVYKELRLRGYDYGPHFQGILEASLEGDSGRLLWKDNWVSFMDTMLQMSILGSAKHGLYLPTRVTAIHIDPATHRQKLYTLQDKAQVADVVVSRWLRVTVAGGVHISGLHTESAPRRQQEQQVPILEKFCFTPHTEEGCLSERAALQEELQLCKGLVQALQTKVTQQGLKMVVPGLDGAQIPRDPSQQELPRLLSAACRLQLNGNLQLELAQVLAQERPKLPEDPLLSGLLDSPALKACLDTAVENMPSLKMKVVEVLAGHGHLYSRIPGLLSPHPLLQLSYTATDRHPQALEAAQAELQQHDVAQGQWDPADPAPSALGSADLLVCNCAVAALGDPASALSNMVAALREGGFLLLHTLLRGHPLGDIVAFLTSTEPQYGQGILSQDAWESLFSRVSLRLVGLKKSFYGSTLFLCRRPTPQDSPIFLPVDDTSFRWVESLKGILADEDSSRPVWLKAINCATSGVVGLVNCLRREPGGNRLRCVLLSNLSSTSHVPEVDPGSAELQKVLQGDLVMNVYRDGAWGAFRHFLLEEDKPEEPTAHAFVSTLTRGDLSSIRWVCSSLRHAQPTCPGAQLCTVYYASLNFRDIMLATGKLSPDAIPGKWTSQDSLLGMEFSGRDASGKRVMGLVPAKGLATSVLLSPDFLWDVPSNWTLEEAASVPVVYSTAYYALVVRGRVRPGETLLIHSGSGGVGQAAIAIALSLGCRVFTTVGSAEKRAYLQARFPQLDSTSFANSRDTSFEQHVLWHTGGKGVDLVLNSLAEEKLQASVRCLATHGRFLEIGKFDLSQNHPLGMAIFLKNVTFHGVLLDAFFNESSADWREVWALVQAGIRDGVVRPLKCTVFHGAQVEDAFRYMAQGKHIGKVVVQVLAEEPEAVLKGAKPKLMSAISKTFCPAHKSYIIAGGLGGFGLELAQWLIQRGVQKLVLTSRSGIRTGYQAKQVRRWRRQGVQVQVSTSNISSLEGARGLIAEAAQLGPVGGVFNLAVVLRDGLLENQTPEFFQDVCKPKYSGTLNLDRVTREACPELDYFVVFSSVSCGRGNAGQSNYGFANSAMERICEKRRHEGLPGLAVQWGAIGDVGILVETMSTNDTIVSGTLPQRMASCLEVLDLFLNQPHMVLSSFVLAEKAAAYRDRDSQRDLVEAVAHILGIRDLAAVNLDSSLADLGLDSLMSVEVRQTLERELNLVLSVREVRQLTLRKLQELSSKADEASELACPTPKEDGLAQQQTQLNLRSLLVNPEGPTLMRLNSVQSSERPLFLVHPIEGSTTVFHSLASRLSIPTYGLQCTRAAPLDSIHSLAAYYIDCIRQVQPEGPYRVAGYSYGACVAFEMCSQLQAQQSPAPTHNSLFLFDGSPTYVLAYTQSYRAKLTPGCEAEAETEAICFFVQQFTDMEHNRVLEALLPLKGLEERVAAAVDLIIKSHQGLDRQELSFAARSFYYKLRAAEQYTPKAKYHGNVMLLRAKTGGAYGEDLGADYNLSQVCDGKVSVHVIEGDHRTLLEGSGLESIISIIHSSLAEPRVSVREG

Compound	IC50 [nM]
COc1ccc(-c2ccc(-c3nnnn3C[C@@H]3CCN(C(=O)C4CC4)C3)cc2)c(Cl)c1 [Example 5, 5-[2′-chloro-4′-(methyloxy)-4-biphenylyl]-1-{[(3R)-1-(cyclopropylcarbonyl)-3-pyrrolidinyl]methyl}-1H-tetrazole]	752
O=C(C1CC1)N1CC[C@@H](Cn2nncc2-c2ccc(-c3ccc4[nH]ncc4c3)cc2)C1 [Example 11, 5-[4-(1-{[(3R)-1-(cyclopropylcarbonyl)-3-pyrrolidinyl]methyl}-1H-1,2,3-triazol-5-yl)phenyl]-1H-indazole]	40
Cc1nnc(-c2ccc(-c3ccc(Cl)cc3Cl)cc2)n1C[C@@H]1CCN(C(=O)C2CC2)C1 [Example 15, 4-{[(3S)-1-(cyclopropylcarbonyl)-3-pyrrolidinyl]methyl}-3-(2′,4′-dichloro-4-biphenylyl)-5-methyl-4H-1,2,4-triazole]	596
O=C(C1CC1)N1CC[C@@H](Cn2ccnc2-c2ccc(-c3ccccc3)cc2)C1 [Example 26, 2-(4-biphenylyl)-1-{[(3S)-1-(cyclopropylcarbonyl)-3-pyrrolidinyl]methyl}-1H-imidazole]	190
O=C(C1CC1)N1CC[C@@H](Cn2ccnc2-c2ccc(-c3ccc4occc4c3)cc2)C1 [Example 34, 2-[4-(1-benzofuran-5-yl)phenyl]-1-{[(3S)-1-(cyclopropylcarbonyl)-3-pyrrolidinyl]methyl}-1H-imidazole]	23
Cc1nc(-c2ccc(-c3ccc(F)cc3)cc2)n(CC2CCN(C(=O)C3CC3)C2)c1C (stereo not drawn) [Example 41, 1-{[1-(cyclopropylcarbonyl)-3-pyrrolidinyl]methyl}-2-(4′-fluoro-4-biphenylyl)-4,5-dimethyl-1H-imidazole]	1520
Cc1cnc(-c2ccc(-c3ccc(Cl)cc3Cl)cc2)n1CC1CCN(C(=O)C2CC2)C1 (stereo not drawn) [Example 54, 1-{[1-(cyclopropylcarbonyl)-3-pyrrolidinyl]methyl}-2-(2′,4′-dichloro-4-biphenylyl)-5-methyl-1H-imidazole]	602
O=C(C1CC1)N1CC[C@@H](Cn2cnnc2-c2ccc(-c3cccc4[nH]ncc34)cc2)C1 [Example 67, 4-[4-(4-{[(3S)-1-(cyclopropylcarbonyl)-3-pyrrolidinyl]methyl}-4H-1,2,4-triazol-3-yl)phenyl]-1H-indazole]	13
Cn1ccc2cc(-c3ccc(-c4nncn4C[C@@H]4CCN(C(=O)C5CC5)C4)cc3)cnc21 [Example 73, 5-[4-(4-{[(3S)-1-(cyclopropylcarbonyl)-3-pyrrolidinyl]methyl}-4H-1,2,4-triazol-3-yl)phenyl]-1-methyl-1H-pyrrolo[2,3-b]pyridine]	251
O=C(C1CC1)N1CC[C@@H](Cn2cnnc2-c2ccc(-c3cccc(-c4cc[nH]n4)c3)cc2F)C1 [Example 87, 4-{[(3S)-1-(cyclopropylcarbonyl)-3-pyrrolidinyl]methyl}-3-[3-fluoro-3′-(1H-pyrazol-5-yl)-4-biphenylyl]-4H-1,2,4-triazole]	63
O=C(C1CC1)N1CC(Cn2cnnc2-c2ccc(-c3ccc4ncccc4c3)cc2F)C1 [Example 96, 6-[4-(4-{[1-(cyclopropylcarbonyl)-3-azetidinyl]methyl}-4H-1,2,4-triazol-3-yl)-3-fluorophenyl]quinoline]	631
COc1cc(-c2ccc(-c3nncn3C[C@@H]3CCN(C(=O)C4CC4)C3)c(F)c2)ccc1C [Example 98, 4-{[(3S)-1-(cyclopropylcarbonyl)-3-pyrrolidinyl]methyl}-3-[3-fluoro-4′-methyl-3′-(methyloxy)-4-biphenylyl]-4H-1,2,4-triazole]	200
